Article PMC4648050, “Discovery of Inhibitors of Trypanosoma brucei by Phenotypic Screening of a Focused Protein Kinase Library” (Chemmedchem, 2015)
≈ marks a conversion by molar mass, not a printed value. Like-named read-outs stand apart in the source and are kept apart here.

Legend:
[1] = Kinetic aqueous solubility (laser nephelometry); assay type: physicochemical; conditions: Milli-Q water with 2.5% DMSO, kinetic from dmso stock, range 250–12 μM, read-out: Aq. Sol. (aqueous kinetic solubility)
Method: Solubility experiments: The kinetic aqueous solubility of the test compounds was measured using laser nephelometry. Compounds were subject to serial dilution from 10 mM to 0.5 mM in DMSO. An aliquot was then mixed with Milli-Q H2O to obtain an aqueous dilution plate with a final concentration range of 250–12 μM, with a final DMSO concentration of 2.5 %. Triplicate aliquots were transferred to a flat-bottomed polystyrene plate which was immediately read on the NEPHELOstar (BMG Lab Technologies). The amount of laser scatter caused by insoluble particulates (relative nephelometry units, RNU) was plotted against compound concentration using a segmental regression fit, with the point of inflection being quoted as the compounds′ aqueous solubility (in μM).

[2] = tested on: MRC5 cells (human lung fibroblasts); experiment: MRC5 proliferation assay; assay type: cell-based; conditions: geometric mean of two or more determinations
Method: (§1) Trypanosome and MRC5 proliferation assay: Measurement of inhibition of the proliferation of MRC5 cells (human lung fibroblasts) and T. brucei bloodstream-stage cells was performed using a modification of a cell viability assay previously described.[35, 36] Compounds ([…] to 0.5 nM) were incubated with 2×10^3 cells per well in 0.2 mL of the appropriate culture medium (MEM with 10 % foetal bovine serum for MRC5 cells) in clear 96-well plates. Plates were incubated at 37 °C in the presence of 5 % CO2 for 69 h. Resazurin was then added to a final concentration of 50 μM, and plates were incubated as above for a further 4 h before being read on a BioTek Flx800 fluorescence plate reader.

[3] = Intrinsic clearance in mouse liver microsomes; assay type: in vitro ADME; conditions: mouse hepatic microsomes, 0.5 μM compound
Method: Intrinsic clearance experiments: Test compound (0.5 μM) was incubated with female CD1 mouse liver microsomes (Xenotech LLC; 0.5 mg mL^−1 50 mM potassium phosphate buffer, pH 7.4), and the reaction started with the addition of excess NADPH (8 mg mL^−1 50 mM potassium phosphate buffer, pH 7.4). Immediately, at t0, then at 3, 6, 9, 15, and 30 min an aliquot (50 μL) of the incubation mixture was removed and mixed with MeCN (100 μL) to stop the reaction. Internal standard was added to all samples, the samples were centrifuged to sediment precipitated protein, and the plates were then sealed prior to UPLC–MS/MS analysis using a Quattro Premier XE instrument (Waters Corp., USA). XLfit (IDBS, UK) was used to calculate the exponential decay and consequently the rate constant (k) from the ratio of peak area of test compound to internal standard at each time point. The rate of intrinsic clearance [CLint, mL min^−1 (g liver)^−1] of each test compound was then calculated with Equation (3): […]
in which V [mL (mg protein)^−1] is the incubation volume per mg protein added, and microsomal protein yield is taken as 52.5 mg protein per gram of liver. Verapamil (0.5 μM) was used as a positive control to confirm acceptable assay performance.

[4] = Plasma protein binding (equilibrium dialysis); assay type: in vitro ADME; conditions: mouse plasma; for fraction unbound at 5 h, 10 μg g^−1: female, CD1, read-out: PPB; for fraction unbound at 5 h, 10 μg g^−1 / PPB: equilibrium dialysis
Method: Plasma protein binding experiments: In brief, a 96-well equilibrium dialysis apparatus was used to determine the free fraction in plasma for each compound (HT Dialysis LLC, Gales Ferry, CT, USA). Membranes (12-14 kDa cutoff) were conditioned in deionised H2O for 60 min, followed by conditioning in 80:20 deionised H2O/EtOH for 20 min, and then rinsed in isotonic buffer before use. Female CD1 mouse plasma was removed from the freezer and allowed to thaw on the day of experiment. Thawed plasma was then centrifuged (Allegra […], Beckman Coulter, USA), spiked with test compound (10 μg g^-1), and 150 μL aliquots (n=6 replicate determinations) loaded into the 96-well equilibrium dialysis plate. Dialysis against isotonic buffer (150 μL) was carried out for 5 h in a temperature-controlled incubator at ∼37 °C (Barworld Scientific Ltd., UK) using an orbital microplate shaker at 125 rpm (Barworld Scientific). At the end of the incubation period, aliquots of plasma or buffer were transferred to micronic tubes (Micronic B.V., the Netherlands), and the composition in each tube was balanced with control fluid such that the volume of buffer to plasma is the same. Sample extraction was performed by the addition of 400 μL MeCN containing an appropriate internal standard. Samples were allowed to mix for 1 min and then centrifuged at 3000 rpm in 96-well blocks for 15 min (Allegra […], Beckman Coulter, USA). All samples were analysed by UPLC-MS/MS on a Quattro Premier XE Mass Spectrometer (Waters Corp.). The unbound fraction was determined as the ratio of the peak area in buffer to that in plasma.

[5] = In vivo pharmacokinetics in mice; design: species or system female NMRI mice; conditions: mouse, whole blood, ip, blood; for Tmax: female, NMRI; for AUC(0-t): read-out: AUC(0–8) (converted)
Method: In vivo pharmacokinetics in mice: Compounds 1 and 28 were dosed orally by gavage as a solution at 5 mg free base per kg or 20 mg free base per kg, respectively (dose volume: 5 or 10 mL kg^−1, dose vehicle: 5 % DMSO, 40 % PEG400, 55 % distilled H2O) to female NMRI mice (n=3). Compounds 28, 38, and 56 were dosed as a bolus solution intraperitoneally at 10 (56) or 20 (28 and 38) mg free base per kg (dose volume: 10 mL kg^−1, dose vehicle: 5 % DMSO, 40 % PEG400, 55 % sterile H2O) to female NMRI mice (n=3). Female NMRI mice were chosen, as these represent the sex and strain used for the stage-1 and stage-2 HAT efficacy models. Blood samples were taken from each mouse at 5 (i.p. only), 15 and 30 min, 1, 2, 4, 6 and 8 h post-dose and mixed with two volumes of distilled H2O. After suitable sample preparation, the concentration of each compound in blood was determined by UPLC–MS/MS using a Quattro Premier XE (Waters, USA). Pharmacokinetic parameters were derived from the mean blood concentration time curve using PKsolutions software ver. 2.0 (Summit Research Services, USA).

T. b. brucei = experiment: Trypanosome proliferation assay; assay type: cell-based, Trypanosoma brucei brucei; conditions: for EC50: geometric mean of two or more determinations, standard cell viability (resazurin) assay, read-out: EC50 T. b. brucei
Method: as §1

[6] = tested on: T. brucei bloodstream-stage cells; experiment: Static–cidal (SC) assay; assay type: cell-based, Trypanosoma brucei brucei; conditions: for EC50 / MCC: Trypanosoma brucei; for EC50: 48 h; for MCC: static–cidal assay in triplicate, read-out: MCC (minimal cidal concentration); for plateau of dose–response curve (inhibition): static–cidal dose–response curve; for mode of antiparasitic effect (in words): text and figure legend, at concentrations tested
Method: Determination of cidality against T. brucei bloodstream-stage cells was performed using a static–cidal (SC) assay as previously reported.[26] Briefly, bloodstream-form trypanosomes were seeded into 384-well plates at 4×10^5 mL^−1 (50 μL per well), followed by immediate addition of resazurin (50 μM final) to one of the plates, and all plates were incubated at 37 °C, 5 % CO2. After 4 h the t0 plate was read using a PerkinElmer Victor 3 plate reader (λex=528 nm, λem=590 nm). The second plate was processed in the same manner 20 h later, and at 44 h the last plate was processed. The minimum cidal concentration (MCC) is defined as the lowest concentration of drug that results in a decrease of resorufin signal over time. For dose–response curves from this assay either a monophasic or a biphasic equation was used, depending on which one provided the best fit. For monophasic fits, the following four-parametric equation [Eq. (1)] was used:
in which A=percent inhibition at bottom, B=percent inhibition at top, C=EC50, D=slope, x=inhibitor concentration, and y=percent inhibition. Equation (2) was used for biphasic fits:
for which A=percent inhibition at mid-plateau, B=slope, C=log[SC EC50(1)], D=log[SC EC50(2)]. Thus SC EC50(1) is the EC50 for the first phase of the curve, and SC EC50(2) is that for the second phase. Inhibition at the bottom of the curve is fixed at 0 % and at the top, 100 %.

[7] = static cidal EC50, first site/phase, read-out: SC EC50(1)
[8] = static cidal EC50, second site/phase, read-out: SC EC50(2)

solubility kinetic [1] [µM]	CLint [3] [mL/min/g]	fraction unbound at 5 h, 10 μg g^−1 [4]	EC50 [6, 7] [nM]	EC50 [6, 8] [nM]	SMILES	EC50 [2] [nM]	EC50 (T. b. brucei; Trypanosoma brucei) [nM]	EC50 (T. b. brucei) [nM]	MCC [6] [µM]	mode of antiparasitic effect (in words) [6]	other results
55 (≈ 16.3 µg/mL)	1.6				O=c1[nH]c2ncc(-c3ccccc3)nc2n1C1CCOCC1 [Compound 38]	> 50000	100				protein binding (unbound) [4]: 15 % unbound; Tmax ([5]; 20 mg/kg, 20 mg kg^−1, female NMRI mice): 2 h; Cmax ([5]; 20 mg kg^−1, female NMRI mice): 83 ng/mL; half-life ([5]; 20 mg kg^−1, female NMRI mice): 2.2 h; AUC(0-t) ([5]; 20 mg kg^−1, female NMRI mice): 367 ng·h/mL
20 (≈ 5.55 µg/mL)	15	0.014	80	7900	c1ccc(-c2cnc3[nH]nc(C4CCCCC4)c3c2)cc1 [Compound 60]	> 50000	59	60	17	cidal behaviour	plateau of dose–response curve (inhibition) [6]: 100 % inhibition
110 (≈ 32.4 µg/mL)	3.6	0.008			O=c1[nH]c2ncc(-c3ccccc3)nc2n1C1CCCCC1 [Compound 19]	> 50000	40	44			PPB [4]: 0.8 % free
180 (≈ 53 µg/mL)	2.7	0.11	330		O=c1[nH]c2ncc(-c3cccnc3)cc2n1C1CCCCC1 [Compound 55]	> 50000	230		> 50	growth-slowing or static behaviour	fold loss of activity (T. b. brucei EC50) (T. b. brucei; relative to the comparator compound): approximately 2 fold
	15				O=c1[nH]c2ncc(N3CCCCC3)nc2n1C1CCCCC1 [Compound 31, 1-Cyclohexyl-6-(piperidin-1-yl)-1H-imidazo[4,5-b]pyrazin-2(3H)-one]	> 50000	80	77			PPB [4]: 0 % free

Second part, the molecule before the results:

SMILES	solubility kinetic [1] [µM]	CLint [3] [mL/min/g]	fraction unbound at 5 h, 10 μg g^−1 [4]	EC50 [6, 7] [nM]	EC50 [6, 8] [nM]	EC50 [2] [nM]	EC50 (T. b. brucei; Trypanosoma brucei) [nM]	EC50 (T. b. brucei) [nM]	MCC [6] [µM]	mode of antiparasitic effect (in words) [6]	other results
O=c1[nH]c2ncc(N3CCCCC3)cc2n1C1CCCCC1 [Compound 56]	> 250	3.6	0.11	70	> 50000	> 50000	93	90	> 50	growth-slowing or static behaviour	Tmax ([5]; 10 mg/kg, 10 mg kg^−1, female NMRI mice): 0.25 h; Cmax ([5]; 10 mg kg^−1, female NMRI mice): 580 ng/mL; half-life ([5]; 10 mg kg^−1, female NMRI mice): 0.7 h; AUC(0-t) ([5]; 10 mg kg^−1, female NMRI mice): 883 ng·h/mL
O=c1[nH]c2ncc(-c3cccnc3)nc2n1C1CCCCC1 [Compound 30]		2.8	0.023	230		> 50000	100	120	> 50	growth-slowing or static behaviour	
O=c1[nH]c2ncc(-c3ccccc3)cc2n1C1CCCCC1 [Compound 51]	36 (≈ 10.6 µg/mL)	5.8	0.029	20	41000	> 50000	54	50	> 50	growth-slowing or static behaviour	Mode ([6]; static/cidal classification from growth curves): S^[d]
c1cncc(-c2cnc3[nH]nc(C4CCCCC4)c3c2)c1 [Compound 63]	250 (≈ 69.6 µg/mL)	6.6	0.052	280	6100	> 50000	260		17	cidal behaviour	plateau of dose–response curve (inhibition) [6]: 100 % inhibition
